Measurements published in PubChem BioAssay AID720587 (Broad Institute, 2013).
Activity calls are given as the source filed them.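 Rule for the calls: active = fitted curve reaches -35% activity change at a concentration below twice the top valid dose tested; inactive = the rest, including effects opposite to the expected direction.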

Assay: A673 Ewing sarcoma viability loss – cell-based, CellTiter-Glo luminescence, cherry-pick retest, confirmation (AID 720587)
Conditions: A673 Ewing sarcoma viability, CellTiter-Glo ATP luminescence, 72 h; at 26 µM (top of the series)

For `CCc1c(C(=O)NN2C(=O)C3CCCCC3C2=O)csc1C` (stereo unspecified), the activity change, negative = cytotoxicity was -1.99% (inactive).
